Test results: ChEMBL document CHEMBL1156243
Calls of active or inactive are those of the source. Unless noted, no cut-off for these calls is given here.

Assays:
[1] = Binding affinity to amyloid beta (1 to 42) fibrils by change in fluorescence at 100 uM after 2 mins
[2] = Binding affinity to amyloid beta (1 to 42) oligomers by change in fluorescence at 100 uM after 2 mins
[3] = Binding affinity to amyloid beta (1 to 42) fibrils by change in fluorescence at 100 uM after 10 mins
[4] = Binding affinity to amyloid beta (1 to 42) oligomers by change in fluorescence at 100 uM after 10 mins
[5] = Binding affinity to amyloid beta (1 to 42) fibrils by fluorescence quenching after 30 mins
[6] = Binding affinity to amyloid beta (1 to 42) oligomers by fluorescence quenching after 30 mins
[7] = Inhibition of amyloid beta (1 to 42) aggregation […] after 48 hrs by fluorescence imaging

Row | SMILES | Activity [1] | Activity [2] | Activity [3] | Activity [4] | Activity [5] | Activity [6] | inhibition [7]
1 | O=S(=O)(O)c1cccc2c(-c3ccc(Nc4ccccc4)c4c(S(=O)(=O)O)cccc34)ccc(Nc3ccccc3)c12 | Active | Active | – | – | – | – | –
2 | c1ccc2[nH]ccc2c1 | – | – | Active | Active | inactive | Active | inactive
